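Results reflect a 48-hour exposure of cells in 96-well plates to compound at five concentrations. GI50 = concentration required for 50% inhibition of growth. TGI marks complete inhibition of growth.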
Columns and labels:
Assay in all cases: growth of human tumour cells (NCI), 48 h
[1] = tested on: ACHN renal
[2] = tested on: DU-145 prostate
[3] = tested on: IGROV1 ovarian
[4] = tested on: MOLT-4 leukemia
[5] = tested on: OVCAR-5 ovarian
[6] = tested on: SK-MEL-5 melanoma
[7] = tested on: SK-OV-3 ovarian
[8] = tested on: SNB-19 CNS
[9] = tested on: SNB-75 CNS
[10] = tested on: UO-31 renal

COc1cccc(/C=N/NC(=O)c2ccccc2N2CCCC2)c1O
GI50 [1]: 2.72 µM | TGI [1]: > 100 µM | GI50 [2]: 8.96 µM | TGI [2]: > 100 µM | GI50 [3]: 7.05 µM | TGI [3]: > 100 µM | GI50 [4]: 1.52 µM | TGI [4]: > 100 µM | GI50 [5]: 9.72 µM | TGI [5]: > 100 µM | GI50 [6]: 5.3 µM | TGI [6]: 24.4 µM | GI50 [7]: 4.9 µM | TGI [7]: 90.6 µM | GI50 [8]: 8.93 µM | TGI [8]: > 100 µM | GI50 [9]: 16.9 µM | TGI [9]: > 100 µM | GI50 [10]: 2.28 µM | TGI [10]: > 100 µM

Cn1nc(C(F)(F)F)cc1-c1c[nH]c(OCc2ccc(Cl)cc2)c(-c2ccc(Cl)c(C(F)(F)F)c2)c1=O
GI50 [1]: 1.28 µM | TGI [1]: 4.23 µM | GI50 [2]: 1.64 µM | TGI [2]: > 50 µM | GI50 [3]: 1.74 µM | TGI [3]: > 40.5 µM | GI50 [4]: 1.16 µM | TGI [4]: 3.03 µM | GI50 [5]: 1.71 µM | TGI [5]: > 32.8 µM | GI50 [6]: 0.568 µM | TGI [6]: 1.34 µM | GI50 [7]: 1.36 µM | TGI [7]: 4.19 µM | GI50 [8]: 1.63 µM | TGI [8]: > 50 µM | GI50 [9]: 0.872 µM | TGI [9]: 2.72 µM | GI50 [10]: 1.05 µM | TGI [10]: 3.56 µM

[Cl][Hg][c]1ccc(Cl)s1
GI50 [1]: 1.78 µM | TGI [1]: 3.33 µM | GI50 [2]: 4.56 µM | TGI [2]: 17.6 µM | GI50 [3]: 1.62 µM | TGI [3]: 3.67 µM | GI50 [4]: 1.64 µM | TGI [4]: 6.68 µM | GI50 [5]: 1.72 µM | TGI [5]: 3.29 µM | GI50 [6]: 2.45 µM | TGI [6]: 7.34 µM | GI50 [7]: 13.6 µM | TGI [7]: 26.8 µM | GI50 [8]: 3.15 µM | TGI [8]: 13.4 µM | GI50 [9]: 3.57 µM | TGI [9]: 17.3 µM | GI50 [10]: 1.78 µM | TGI [10]: 3.26 µM

C[C@@H]1CCC([C@@H](C)[C@H]2CC[C@H]3[C@@H]4CC[C@H]5C[C@@H](O)CC[C@]5(C)[C@H]4CC[C@]23C)=NC1
TGI [1]: > 61.5 µM | TGI [2]: > 100 µM | TGI [3]: > 100 µM | TGI [4]: > 66 µM | TGI [5]: > 100 µM | TGI [6]: 42.8 µM | TGI [7]: > 100 µM | TGI [8]: > 100 µM | TGI [9]: > 71 µM | TGI [10]: 46.3 µM

Cc1ccc2c(c1)c(Sc1ccc(C(=O)NO)cc1)c1n2CN(C)CC1
GI50 [1]: 2.68 µM | TGI [1]: 8.63 µM | GI50 [2]: 1.83 µM | TGI [2]: 5.28 µM | GI50 [3]: 2.23 µM | TGI [3]: 5.46 µM | GI50 [4]: 2.05 µM | TGI [4]: 6.98 µM | GI50 [5]: 1.75 µM | TGI [5]: 5.54 µM | GI50 [6]: 2.23 µM | TGI [6]: 6.27 µM | GI50 [7]: 1.77 µM | TGI [7]: 3.8 µM | GI50 [8]: 2.13 µM | TGI [8]: 7.27 µM | GI50 [9]: 0.96 µM | TGI [9]: 3.76 µM | GI50 [10]: 2.15 µM | TGI [10]: 9.1 µM

Reference: PubChem BioAssay (NCI)
